Test system: Ap4A-RNA
Test: In vitro Ap4A-RNA decapping assay (cap-labelled RNA, thin-layer chromatography)
Assay type: biochemical
Settings: recombinant protein 250 nM to 750 nM, 37° C., 30 min, TLC
Description: Briefly, using the Ap4A mixture (ATP and Ap4A) or Ap4A instead of ATP for in vitro transcription by MEGAshortscript™ T7 Transcription Kit (Life technologies; Cat. No. AM1354), we produced a 50 nt RNA. Template is the same as making 50 nt RNA for MEFs transfection. Note that if the mixture is used, this nucleotide mixture (ATP and Ap4A) still has all the components (lysine, inorganic pyrophosphatase etc) added during the Ap4A synthesis. In vitro transcription reaction was carried out at 37° C. for at least 4 h in a 20 μL reaction containing 6 pmol DNA template, 2 μL 10× reaction buffer, 2 μL of nucleotides (75 mM CTP, 75 mM UTP, 75 mM GTP), 2 μL of ATP/Ap4A mixture that we produced above, and 2 μL T7 enzyme mix (MEGAshortscript™ Kit, Life technologies, Cat. No. AM1354). After that, 1 μL TURBO DNase was added and incubated at 37° C. for 15 min to remove the DNA template. Unincorporated nucleotides were removed from the RNA preparation by Microspin G-25 Column (GE Healthcare, Cat. No. 27-5325-01), and the process was repeated twice. The radioactively labelled RNA was separated by 10% urea gel. […]
Decapping reaction products were resolved by PEI-cellulose TLC plates (Merk, Cat. No. 1057250001) and developed in 0.45 M (NH4)2SO4 in a glass chamber at room temperature. […] When required, signals were quantified by ImageQuantTL.

In the case of “DCP2 (NUDT20): recombinant untagged mouse DCP2 catalytic core domain (95-260 aa)”, the Ap4A-RNA decapping activity is reported as “only NUDT2 has Ap4A-RNA decapping activity”.
